≈ marks a conversion by molar mass, not a printed value.
What was measured:
Mus musculus = assay: Toxicity in CD1 mouse assessed as induction of convulsion at 100 mg/kg, icv measured 1 hr after post dose; type: organism-based; conditions: in vivo, icv_or_intrathecal
[1] = molecular target: GABA A receptor alpha-2/beta-2/gamma-2 (Homo sapiens) (UniProt P47870+P18507+P47869); assay: Inhibition of recombinant human GABA A alpha2beta2gamma2 receptor expressed in CHO-K1 cells at 300 uM incubated at room temperature for 15 mins before the GABA addition fluorescence spectrometry; type: cell-based
Escherichia coli [2] = assay: microbe, parasite or virus in culture
Description: Antimicrobial activity against Escherichia coli expressing beta-lactamase CMY-2 by CLSI broth microdilution method

Escherichia coli [3] = assay: microbe, parasite or virus in culture; remark: listed apart in the source
Description: Antimicrobial activity against wild type Escherichia coli by CLSI broth microdilution method

[4] = Chemical stability in pH 7.4 potassium phosphate buffer assessed as half life for compound hydrolysis at 37 degC by UPLC and mass spectrometry; type: physicochemical
Escherichia coli [5] = assay: microbe, parasite or virus in culture; remark: listed apart in the source
Description: Antimicrobial activity against Escherichia coli expressing beta-lactamase TEM-10 by CLSI broth microdilution method

Escherichia coli [6] = assay: Antimicrobial activity against Escherichia coli expressing beta-lactamase NDM-1 by CLSI broth microdilution method; type: functional
Escherichia coli [7] = assay: microbe, parasite or virus in culture; remark: listed apart in the source
Description: Antimicrobial activity against Escherichia coli expressing beta-lactamase SHV-12 by CLSI broth microdilution method

Escherichia coli [8] = assay: microbe, parasite or virus in culture; remark: listed apart in the source
Description: Antimicrobial activity against Escherichia coli expressing beta-lactamase CTXM-15 by CLSI broth microdilution method

Pseudomonas aeruginosa [9] = assay: Antimicrobial activity against Pseudomonas aeruginosa expressing nalB/delta-mexXY/delta-mexCDoprJ/delta-ampC by CLSI broth microdilution method; type: functional
Escherichia coli [10] = assay: Antimicrobial activity against Escherichia coli expressing beta-lactamase KPC-2 by CLSI broth microdilution method; type: functional
Pseudomonas aeruginosa [11] = assay: Antimicrobial activity against Pseudomonas aeruginosa expressing delta-mexB/mexXY/delta-ampDh2/ delta-ampD by CLSI broth microdilution method; type: functional
Pseudomonas aeruginosa [12] = assay: Antimicrobial activity against Pseudomonas aeruginosa ATCC 27853 by CLSI broth microdilution method; type: functional
Pseudomonas aeruginosa [13] = assay: Antimicrobial activity against Pseudomonas aeruginosa expressing delta-mexB/delta-mexXY/delta-mexCD and delta-ampC mutant by CLSI broth microdilution method; type: functional
Escherichia coli [14] = assay: microbe, parasite or virus in culture; remark: listed apart in the source
Description: Antimicrobial activity against Escherichia coli expressing beta-lactamase AmpC by CLSI broth microdilution method

Escherichia coli [15] = assay: microbe, parasite or virus in culture; remark: listed apart in the source
Description: Antimicrobial activity against Escherichia coli expressing beta-lactamase VIM-1 by CLSI broth microdilution method

Escherichia coli [16] = assay: microbe, parasite or virus in culture; remark: listed apart in the source
Description: Antimicrobial activity against Escherichia coli expressing beta-lactamase KPC-4 by CLSI broth microdilution method

Escherichia coli [17] = assay: microbe, parasite or virus in culture; remark: listed apart in the source
Description: Antimicrobial activity against Escherichia coli expressing beta-lactamase Oxa-10 by CLSI broth microdilution method

Escherichia coli [18] = assay: microbe, parasite or virus in culture; remark: listed apart in the source
Description: Antimicrobial activity against Escherichia coli expressing beta-lactamase SPM-1 by CLSI broth microdilution method

Escherichia coli [19] = assay: microbe, parasite or virus in culture; remark: listed apart in the source
Description: Antimicrobial activity against Escherichia coli expressing beta-lactamase SME-1 by CLSI broth microdilution method

Escherichia coli [20] = assay: microbe, parasite or virus in culture; remark: listed apart in the source
Description: Antimicrobial activity against Escherichia coli expressing beta-lactamase Oxa-51 by CLSI broth microdilution method

Escherichia coli [21] = assay: microbe, parasite or virus in culture; remark: listed apart in the source
Description: Antimicrobial activity against Escherichia coli expressing beta-lactamase KPC-8 by CLSI broth microdilution method

Escherichia coli [22] = assay: microbe, parasite or virus in culture; remark: listed apart in the source
Description: Antimicrobial activity against Escherichia coli expressing beta-lactamase P99 by CLSI broth microdilution method

Escherichia coli [23] = assay: microbe, parasite or virus in culture; remark: listed apart in the source
Description: Antimicrobial activity against Escherichia coli expressing beta-lactamase Oxa-18 by CLSI broth microdilution method

Escherichia coli [24] = assay: Antimicrobial activity against Escherichia coli expressing beta-lactamase NDM-5 by CLSI broth microdilution method; type: functional
Escherichia coli [25] = assay: microbe, parasite or virus in culture; remark: listed apart in the source
Description: Antimicrobial activity against Escherichia coli expressing beta-lactamase MIR-1 by CLSI broth microdilution method

Escherichia coli [26] = assay: microbe, parasite or virus in culture; remark: listed apart in the source
Description: Antimicrobial activity against Escherichia coli expressing beta-lactamase TEM-121 by CLSI broth microdilution method

Escherichia coli [27] = assay: microbe, parasite or virus in culture; remark: listed apart in the source
Description: Antimicrobial activity against Escherichia coli expressing beta-lactamase GIM-1 by CLSI broth microdilution method

Escherichia coli [28] = assay: microbe, parasite or virus in culture; remark: listed apart in the source
Description: Antimicrobial activity against Escherichia coli expressing beta-lactamase GES-1 by CLSI broth microdilution method

Escherichia coli [29] = assay: microbe, parasite or virus in culture; remark: listed apart in the source
Description: Antimicrobial activity against Escherichia coli expressing beta-lactamase PER-2 by CLSI broth microdilution method

Escherichia coli [30] = assay: microbe, parasite or virus in culture; remark: listed apart in the source
Description: Antimicrobial activity against Escherichia coli expressing beta-lactamase CTXM-3 by CLSI broth microdilution method

Escherichia coli [31] = assay: Antimicrobial activity against Escherichia coli expressing beta-lactamase TEM-1 by CLSI broth microdilution method; type: functional
Escherichia coli [32] = assay: microbe, parasite or virus in culture; remark: listed apart in the source
Description: Antimicrobial activity against Escherichia coli expressing beta-lactamase Oxa-160 by CLSI broth microdilution method

Escherichia coli [33] = assay: microbe, parasite or virus in culture; remark: listed apart in the source
Description: Antimicrobial activity against Escherichia coli expressing beta-lactamase Oxa-48 by CLSI broth microdilution method

Escherichia coli [34] = assay: microbe, parasite or virus in culture; remark: listed apart in the source
Description: Antimicrobial activity against Escherichia coli expressing beta-lactamase TEM-16 by CLSI broth microdilution method

Escherichia coli [35] = assay: microbe, parasite or virus in culture; remark: listed apart in the source
Description: Antimicrobial activity against Escherichia coli expressing beta-lactamase Oxa-225 by CLSI broth microdilution method

Escherichia coli [36] = assay: microbe, parasite or virus in culture; remark: listed apart in the source
Description: Antimicrobial activity against Escherichia coli expressing beta-lactamase TEM-24 by CLSI broth microdilution method

Escherichia coli [37] = assay: microbe, parasite or virus in culture; remark: listed apart in the source
Description: Antimicrobial activity against Escherichia coli expressing beta-lactamase Oxa-40 by CLSI broth microdilution method

Escherichia coli [38] = assay: microbe, parasite or virus in culture; remark: listed apart in the source
Description: Antimicrobial activity against Escherichia coli expressing beta-lactamase VEB-4 by CLSI broth microdilution method

Escherichia coli [39] = assay: microbe, parasite or virus in culture; remark: listed apart in the source
Description: Antimicrobial activity against Escherichia coli expressing beta-lactamase KPC-3 by CLSI broth microdilution method

Escherichia coli [40] = assay: microbe, parasite or virus in culture; remark: listed apart in the source
Description: Antimicrobial activity against Escherichia coli expressing beta-lactamase TEM-47 by CLSI broth microdilution method

Escherichia coli [41] = assay: microbe, parasite or virus in culture; remark: listed apart in the source
Description: Antimicrobial activity against Escherichia coli expressing beta-lactamase IMI-1 by CLSI broth microdilution method

Escherichia coli [42] = assay: microbe, parasite or virus in culture; remark: listed apart in the source
Description: Antimicrobial activity against Escherichia coli expressing beta-lactamase Oxa-181 by CLSI broth microdilution method

Escherichia coli [43] = assay: microbe, parasite or virus in culture; remark: listed apart in the source
Description: Antimicrobial activity against Escherichia coli expressing beta-lactamase IMP-1 by CLSI broth microdilution method

Escherichia coli [44] = assay: microbe, parasite or virus in culture; remark: listed apart in the source
Description: Antimicrobial activity against Escherichia coli expressing beta-lactamase PER-4 by CLSI broth microdilution method

Escherichia coli [45] = assay: microbe, parasite or virus in culture; remark: listed apart in the source
Description: Antimicrobial activity against Escherichia coli expressing beta-lactamase Oxa-23 by CLSI broth microdilution method

Escherichia coli [46] = assay: Antimicrobial activity against Escherichia coli expressing beta-lactamase VEB-1 by CLSI broth microdilution method; type: functional
Escherichia coli [47] = assay: microbe, parasite or virus in culture; remark: listed apart in the source
Description: Antimicrobial activity against Escherichia coli expressing beta-lactamase PER-1 by CLSI broth microdilution method

Escherichia coli [48] = assay: microbe, parasite or virus in culture; remark: listed apart in the source
Description: Antimicrobial activity against Escherichia coli expressing beta-lactamase DHA by CLSI broth microdilution method

Escherichia coli [49] = assay: microbe, parasite or virus in culture; remark: listed apart in the source
Description: Antimicrobial activity against Escherichia coli expressing beta-lactamase Oxa-146 by CLSI broth microdilution method

Escherichia coli [50] = assay: microbe, parasite or virus in culture; remark: listed apart in the source
Description: Antimicrobial activity against Escherichia coli expressing beta-lactamase NMC-A by CLSI broth microdilution method

Escherichia coli [51] = assay: microbe, parasite or virus in culture; remark: listed apart in the source
Description: Antimicrobial activity against Escherichia coli expressing beta-lactamase VEB-7 by CLSI broth microdilution method

For `C[C@@H](O)[C@H]1C(=O)N2C(C(=O)O)=C(S[C@@H]3CN[C@H](CNS(N)(=O)=O)C3)[C@H](C)[C@H]12` [DORIPENEM], the Activity (Mus musculus) was “Non-Toxic” and the inhibition [1] was 0%.
`Nc1nc(/C(=N/OC2(C(=O)O)CC2)C(=O)N[C@@H]2C(=O)N(S(=O)(=O)O)[C@H]2CN2CCOC2=O)cs1` (stereo in doubt) gave an MIC (Escherichia coli [2]) of 2 µg/mL (≈ 3.86 µM), an MIC (Escherichia coli [3]) of 0.25 µg/mL (≈ 0.482 µM) and a half-life [4] of 18.8 days. For the same compound, the MIC (Escherichia coli [5]) was 32 µg/mL (≈ 61.7 µM), the MIC (Escherichia coli [6]) was 0.25 µg/mL (≈ 0.482 µM) and the MIC (Escherichia coli [7]) was 64 µg/mL (≈ 123 µM). For the same compound, the MIC (Escherichia coli [8]) was 0.5 µg/mL (≈ 0.964 µM), the MIC (Pseudomonas aeruginosa [9]) was > 64 µg/mL and the MIC (Escherichia coli [10]) was 0.5 µg/mL (≈ 0.964 µM). For the same compound, the MIC (Pseudomonas aeruginosa [11]) was > 64 µg/mL, the MIC (Pseudomonas aeruginosa [12]) was > 64 µg/mL and the MIC (Pseudomonas aeruginosa [13]) was 2 µg/mL (≈ 3.86 µM). For the same compound, the MIC (Escherichia coli [14]) was 0.5 µg/mL (≈ 0.964 µM).
Compound `N=C(NC1CCNCC1)c1ccc(OC[C@H](O/N=C(\C(=O)N[C@@H]2C(=O)N(S(=O)(=O)O)[C@@H]2Cn2cncn2)c2csc(N)n2)C(=O)O)cc1` (stereo in doubt) has an MIC (Escherichia coli [2]) of 0.5 µg/mL (≈ 0.708 µM), an MIC (Escherichia coli [15]) of 0.125 µg/mL (≈ 0.177 µM) and an MIC (Escherichia coli [16]) of 1 µg/mL (≈ 1.42 µM). For the same compound, the MIC (Escherichia coli [17]) was 0.125 µg/mL (≈ 0.177 µM), the MIC (Escherichia coli [18]) was 0.125 µg/mL (≈ 0.177 µM) and the MIC (Escherichia coli [3]) was 0.125 µg/mL (≈ 0.177 µM). The MIC (Escherichia coli [19]) was 0.125 µg/mL (≈ 0.177 µM), the MIC (Escherichia coli [20]) was 0.125 µg/mL (≈ 0.177 µM) and the MIC (Escherichia coli [21]) was 0.5 µg/mL (≈ 0.708 µM). For the same compound, the MIC (Escherichia coli [22]) was 0.5 µg/mL (≈ 0.708 µM), the MIC (Escherichia coli [5]) was 1 µg/mL (≈ 1.42 µM) and the MIC (Escherichia coli [23]) was 32 µg/mL (≈ 45.3 µM). It also gave an MIC (Escherichia coli [24]) of 0.5 µg/mL (≈ 0.708 µM), an MIC (Escherichia coli [6]) of 0.125 µg/mL (≈ 0.177 µM) and an MIC (Escherichia coli [25]) of 0.25 µg/mL (≈ 0.354 µM). The MIC (Escherichia coli [26]) was 1 µg/mL (≈ 1.42 µM), the MIC (Escherichia coli [27]) was 0.125 µg/mL (≈ 0.177 µM) and the MIC (Escherichia coli [7]) was 0.5 µg/mL (≈ 0.708 µM). For the same compound, the MIC (Escherichia coli [28]) was 0.25 µg/mL (≈ 0.354 µM), the MIC (Escherichia coli [29]) was > 64 µg/mL and the MIC (Escherichia coli [30]) was 0.125 µg/mL (≈ 0.177 µM). It also gave an MIC (Escherichia coli [8]) of 0.125 µg/mL (≈ 0.177 µM), an MIC (Pseudomonas aeruginosa [9]) of 8 µg/mL (≈ 11.3 µM) and an MIC (Escherichia coli [31]) of 0.25 µg/mL (≈ 0.354 µM). The MIC (Escherichia coli [32]) was 0.25 µg/mL (≈ 0.354 µM), the MIC (Escherichia coli [33]) was 0.125 µg/mL (≈ 0.177 µM) and the MIC (Escherichia coli [34]) was 0.25 µg/mL (≈ 0.354 µM). The MIC (Escherichia coli [35]) was 0.25 µg/mL (≈ 0.354 µM), the MIC (Escherichia coli [36]) was 0.5 µg/mL (≈ 0.708 µM) and the MIC (Escherichia coli [37]) was 0.25 µg/mL (≈ 0.354 µM). The MIC (Escherichia coli [38]) was 64 µg/mL (≈ 90.7 µM), the MIC (Escherichia coli [10]) was 0.125 µg/mL (≈ 0.177 µM) and the MIC (Escherichia coli [39]) was 0.25 µg/mL (≈ 0.354 µM). The MIC (Escherichia coli [40]) was 0.125 µg/mL (≈ 0.177 µM), the MIC (Escherichia coli [41]) was 0.125 µg/mL (≈ 0.177 µM) and the MIC (Escherichia coli [42]) was 0.25 µg/mL (≈ 0.354 µM). For the same compound, the MIC (Pseudomonas aeruginosa [11]) was 16 µg/mL (≈ 22.7 µM), the MIC (Pseudomonas aeruginosa [12]) was 2 µg/mL (≈ 2.83 µM) and the MIC (Pseudomonas aeruginosa [13]) was 1 µg/mL (≈ 1.42 µM). For the same compound, the MIC (Escherichia coli [43]) was 0.125 µg/mL (≈ 0.177 µM), the MIC (Escherichia coli [44]) was > 64 µg/mL and the MIC (Escherichia coli [45]) was 0.125 µg/mL (≈ 0.177 µM). The MIC (Escherichia coli [46]) was 64 µg/mL (≈ 90.7 µM), the MIC (Escherichia coli [47]) was > 64 µg/mL and the inhibition [1] was 35%. It also gave an MIC (Escherichia coli [48]) of 1 µg/mL (≈ 1.42 µM), an MIC (Escherichia coli [49]) of 1 µg/mL (≈ 1.42 µM) and an MIC (Escherichia coli [50]) of 0.125 µg/mL (≈ 0.177 µM). The MIC (Escherichia coli [14]) was 0.25 µg/mL (≈ 0.354 µM) and the MIC (Escherichia coli [51]) was 64 µg/mL (≈ 90.7 µM).

Source: ChEMBL document CHEMBL4184210, “Optimization of novel monobactams with activity against carbapenem-resistant Enterobacteriaceae - Identification of LYS228” (Bioorg Med Chem Lett, 2018)
